In patent US20230218563A1, “METHODS FOR TREATING OR PREVENTING CHRONIC KIDNEY DISEASE” (Arthrosi Therapeutics, Inc., priority 2020, published 2023):
“And” between values parts separate entries of the source, which are not always exact repeats. Equal entries are not always repeated. “Also recorded” adds a separate entry of the source. Where two headings read alike, the source gives them in different places.

Tests used:
[1] = tested on: serum uric acid (sUA); experiment: Phase 2a cross-over study in adults with gout, serum uric acid; assay type: in vivo, human
[2] = Solubility of test articles in HBSS assay buffer; conditions: all tested concentrations, highest 10 μM
Method: Before the experiment, the medium was removed and the cells were washed twice with 100 μL of HBSS without Cl^−. Uptake experiments were carried out at 37±1° C. in 50 μL of HBSS without Cl^−, pH 7.4 containing the probe substrate (20 μM uric acid) and the test article (TA) or solvent.

[3] = 4-week toxicity study in cynomolgus monkeys; assay type: in vivo
Excerpt: On Day 29, surviving TS animals (all animals in study) were euthanized and subjected to a full gross necropsy, which included a macroscopic examination of the external surface of the body, all orifices, cranial cavity, external surface of the brain, the thoracic, abdominal and pelvic cavities and their viscera, cervical areas, carcass and genitalia. Organs were weighed as soon as possible from all main study animals at the scheduled necropsies. Tissues from animals at the terminal sacrifice, from animals found dead or moribund-sacrificed, and gross lesions from all animals, were embedded in paraffin, sectioned, stained with hematoxylin and eosin and examined microscopically by a board certified veterinary pathologist.

[4] = In vitro metabolism in human liver microsomes; assay type: in vitro ADME
Method: After pre-warming the mixture at 37° C. for 5 minutes, the reaction was initiated by the addition of 1 mM of NADPH and incubated for 60 minutes at 37° C. in a shaking water bath. The reaction was terminated by the addition of 0.5 mL ice-cold acetonitrile. Time 0 incubation was also performed by adding acetonitrile before the addition of microsomes to the incubation mixture as a reference sample for each species. Following vortex and centrifugation at 15,000 g for 3 minutes at room temperature, resulting supernatant was concentrated under nitrogen flow at 33° C., until approximately 0.5 mL of sample remained. The extract was then transferred to a 1.5-mL centrifuge vial for centrifugation at 15,000 g for 3 minutes. Finally, aliquots of the supernatant were transferred to HPLC vials for HPLC-MS analyses.
MS Analysis: Mass spectral analyses were performed on an Agilent single quadruple mass spectrometer equipped with an Agilent 1100 HPLC system. The mass spectrometer was fitted with an electrospray ionization (ESI) source and operated in a negative scan mode between 400 and 500 amu: […]

[5] = Phase 1 single dose study, plasma pharmacokinetics in healthy adult males; assay type: in vivo, human; conditions: for AUC(0-t) / AUC(0-inf) / Tmax / Vd/F / half-life / Cmax: male, human, plasma, po; for Vd/F: read-out: Vz/F
Method: The dose groups included Cohort 1 (15 mg or placebo, fasted, oral suspension), Cohort 2 (50 mg or placebo, fasted, suspension), Cohort 3 (100 mg or placebo, fasted, oral suspension), Cohort 4 (150 mg or placebo, fasted, oral suspension), Cohort 6 (50 mg or placebo, fed, oral suspension), and Cohort 7 (50 mg or placebo, fasted, oral capsule). […] An additional 8 subjects received placebo.
The results are consistent with observation in animal testing and higher exposure of S-enantiomer was attributed to the conversion of the R-enantiomer in vivo.

[6] = gout patients (sUA>7 mg/dL), once daily, Compound 1 50 mg, febuxostat 40 mg, allopurinol 300 mg, alone or combined
[7] = cynomolgus monkeys, oral 10, 30 and 150 mg/kg/day, 28 days
[8] = 15 mg single oral, fasted, suspension (C1)
[9] = 50 mg single oral, fasted, IR capsule (C7)
[10] = 50 mg single oral, fasted, suspension (C2)
[11] = 50 mg single oral, fed vs fasted
[12] = 50 mg single oral, fed, suspension (C6)
[13] = 100 mg single oral, fasted, suspension (C3)
[14] = 150 mg single oral, fasted, suspension (C4)
[15] = dose proportionality, 15 to 150 mg fasted

With `[2H]c1c([2H])c([2H])c2c(C(=O)c3cc(Br)c(O)c(Br)c3)c(C(C)O)oc2c1[2H]` (racemic) [Compound 1, (3,5-dibromo-4-hydroxyphenyl)(2-(1-hydroxyethyl)benzofuran-3-yl-4,5,6,7-d4)methanone] the “patients with sUA levels below 5 mg/dL” value [1, 6] was 93%, the “patients with sUA levels below 6 mg/dL” value [1, 6] was 96% and the “sUA level at 24 hr post-dose in all patients” value ([1]; gout patients, 7 days dosing, 50 mg) was “below 6 mg/dL”. The “sUA after treatment in mildly renal impaired patients” value ([1]; gout patients, Compound 1 50 mg once daily, from 8.6±1.1 mg/dL) was 4.5 ± 0.8 mg/dL, the “mean sUA level reached at maximum” value ([1]; gout patients, mean baseline 8.9 mg/dL, once daily, Compound 1 50 mg, febuxostat 40 mg, allopurinol 300 mg, alone (Day 7/Day 21) or combined) was 4.2 mg/dL and the “reduction of mean sUA from baseline” value ([1]; gout patients, once daily, Compound 1 50 mg, febuxostat 40 mg, allopurinol 300 mg, alone (Day 7/Day 21) or combined) was 53%. The “sUA % change from baseline” value ([1]; one subject with albuminuria, sequential 7-day periods: Compound 1 50 mg (Day 7), Compound 1 50 mg/allopurinol 300 mg (Day 14), allopurinol 300 mg (Day 21)) was −50.9%, the “solubility in HBSS buffer” value [2] was “soluble” and the “NOAEL, human equivalent” value ([3]; cynomolgus monkey, in vivo) was 600 mg. The NOAEL at 28 days ([3]; cynomolgus monkey, in vivo, po) was 30 mg/kg, the “findings after 4 week recovery period” value ([3]; cynomolgus monkeys, 28 days oral then 4 week recovery) was “No finding” and the liver weight ([3]; cynomolgus monkeys, male, 150 mg/kg/day, 28 days) was “trended higher in male at 150 mg/kg/day, but no statistical difference”. For the same molecule, the clinical signs [3, 7] was “No abnormal clinical signs”, the “effect on food consumption, body weight” value [3, 7] was “no effect” and the mortality [3, 7] was “No mortality”. The “stability in human microsomes” value ([4]; 60 minutes incubation) was “stable; also recorded: more stable than benzbromarone”, the “Parent, % MS response (parent left)” value ([4]; human liver microsomes 0.5 mg/mL, NADPH, 60 minutes, 37° C.) was 82.5% and the CL/F [5, 8] was 1.02 L/h. For the same molecule, the “Cmax (total)” value [5, 8] was 1060 ng/mL, the CL/F [5, 9] was 1.01 L/h and the “Cmax (total)” value [5, 9] was 3970 ng/mL. For the same molecule, the CL/F [5, 10] was 0.906 L/h, the “Cmax (total)” value [5, 10] was 3330 ng/mL and the “change of Cmax in the fed state” value [5, 11] was ~33%. For the same molecule, the “decrease of AUC with food” value [5, 11] was “approximately 13%”, the CL/F [5, 12] was 1.03 L/h and the “Cmax (total)” value [5, 12] was 2210 ng/mL. For the same molecule, the “Tmax (median)” value [5, 12] was 8 h and 8.00 h, the CL/F [5, 13] was 1.04 L/h and the “Cmax (total)” value [5, 13] was 5510 ng/mL. The CL/F [5, 14] was 0.944 L/h, the “Cmax (total)” value [5, 14] was 8330 ng/mL and the “Power model intercept, AUCinf (μg · h/mL)” value [5, 15] was 0.944. For the same molecule, the “Power model intercept, Cmax (μg/mL)” value [5, 15] was 0.0966, the AUC(0-t) ([5]; 15 mg, 15 mg single oral, fasted, suspension (C1), read-out: AUC0-24 (total)) was 12100 ng·h/mL and the AUC(0-inf) ([5]; 15 mg, 15 mg single oral, fasted, suspension (C1), read-out: AUCinf (total)) was 15000 ng·h/mL. The Tmax ([5]; 15 mg, 15 mg single oral, fasted, suspension (C1), read-out: Tmax (median)) was 3.5 h, the Vd/F ([5]; 15 mg, 15 mg single oral, fasted, suspension (C1)) was 14.1 L and the half-life ([5]; 15 mg, 15 mg single oral, fasted, suspension (C1), read-out: t1/2 (converted)) was 9.69 h. The AUC(0-t) ([5]; 50 mg, 50 mg single oral, fasted, IR capsule (C7), read-out: AUC0-24 (total)) was 41900 ng·h/mL, the AUC(0-inf) ([5]; 50 mg, 50 mg single oral, fasted, IR capsule (C7), read-out: AUCinf (total)) was 51300 ng·h/mL and the Tmax ([5]; 50 mg, 50 mg single oral, fasted, IR capsule (C7), read-out: Tmax (median)) was 1.75 h. For the same molecule, the Vd/F ([5]; 50 mg, 50 mg single oral, fasted, IR capsule (C7)) was 14.9 L, the half-life ([5]; 50 mg, 50 mg single oral, fasted, IR capsule (C7), read-out: t1/2 (converted)) was 10.5 h and the AUC(0-t) ([5]; 50 mg, 50 mg single oral, fasted, suspension (C2), read-out: AUC0-24 (total)) was 42600 ng·h/mL. For the same molecule, the AUC(0-inf) ([5]; 50 mg, 50 mg single oral, fasted, suspension (C2), read-out: AUCinf (total)) was 59600 ng·h/mL, the Tmax ([5]; 50 mg, 50 mg single oral, fasted, suspension (C2), read-out: Tmax (median)) was 3 h and the Vd/F ([5]; 50 mg, 50 mg single oral, fasted, suspension (C2)) was 16 L. The half-life ([5]; 50 mg, 50 mg single oral, fasted, suspension (C2), read-out: t1/2 (converted)) was 12.5 h, the AUC(0-inf) ([5]; 50 mg, 50 mg single oral, fasted, read-out: Geometric Least Squares Mean AUCinf, Fasted) was 57400 ng·h/mL and the AUC(0-t) ([5]; 50 mg, 50 mg single oral, fasted, read-out: Geometric Least Squares Mean AUClast, Fasted) was 57100 ng·h/mL. For the same molecule, the Cmax ([5]; 50 mg, 50 mg single oral, fasted, read-out: Geometric Least Squares Mean Cmax, Fasted) was 3250 ng/mL, the Cmax ([5]; 50 mg, 50 mg single oral, fed (high-fat, high-calorie meal), read-out: Geometric Least Squares Mean Cmax, Fed) was 2170 ng/mL and the AUC(0-t) ([5]; 50 mg, 50 mg single oral, fed, suspension (C6), read-out: AUC0-24 (total)) was 34000 ng·h/mL. The AUC(0-inf) ([5]; 50 mg, 50 mg single oral, fed, suspension (C6), read-out: AUCinf (total)) was 51200 ng·h/mL, the Tmax ([5]; 50 mg, 50 mg single oral, fed, suspension (C6), read-out: Tmax (median)) was 8 h and the Vd/F ([5]; 50 mg, 50 mg single oral, fed, suspension (C6)) was 16.3 L. It also gave a half-life ([5]; 50 mg, 50 mg single oral, fed, suspension (C6), read-out: t1/2 (converted)) of 11.7 h, an AUC(0-inf) ([5]; 50 mg, 50 mg single oral, fed, read-out: Geometric Least Squares Mean AUCinf, Fed) of 49900 ng·h/mL and an AUC(0-t) ([5]; 50 mg, 50 mg single oral, fed, read-out: Geometric Least Squares Mean AUClast, Fed) of 49600 ng·h/mL. The AUC(0-t) ([5]; 100 mg, 100 mg single oral, fasted, suspension (C3), read-out: AUC0-24 (total)) was 71000 ng·h/mL, the AUC(0-inf) ([5]; 100 mg, 100 mg single oral, fasted, suspension (C3), read-out: AUCinf (total)) was 99700 ng·h/mL and the Tmax ([5]; 100 mg, 100 mg single oral, fasted, suspension (C3), read-out: Tmax (median)) was 4 h. For the same molecule, the Vd/F ([5]; 100 mg, 100 mg single oral, fasted, suspension (C3)) was 18.6 L, the half-life ([5]; 100 mg, 100 mg single oral, fasted, suspension (C3), read-out: t1/2 (converted)) was 12.5 h and the AUC(0-t) ([5]; 150 mg, 150 mg single oral, fasted, suspension (C4), read-out: AUC0-24 (total)) was 114000 ng·h/mL. It also gave an AUC(0-inf) ([5]; 150 mg, 150 mg single oral, fasted, suspension (C4), read-out: AUCinf (total)) of 173000 ng·h/mL, a Tmax ([5]; 150 mg, 150 mg single oral, fasted, suspension (C4), read-out: Tmax (median)) of 4 h and a Vd/F ([5]; 150 mg, 150 mg single oral, fasted, suspension (C4)) of 15.5 L. For the same molecule, the half-life ([5]; 150 mg, 150 mg single oral, fasted, suspension (C4), read-out: t1/2 (converted)) was 12 h, the Tmax ([5]; single oral dose, fasted conditions, read-out: median Tmax, range over doses) was 3 to 5 h and the half-life ([5]; single oral doses 15 to 150 mg, read-out: average terminal half-life) was 10 to 13 h. For the same molecule, the total plasma clearance ([5]; single oral doses 15 to 150 mg) was “approximately 1.0 L/hr” and the volume of distribution ([5]; single oral doses 15 to 150 mg) was 14 to 18 L.
